Experiment: Cytotoxicity against human MDA-MB-231 cells after 72 hrs by alamar blue assay
Type: functional
Conditions: MDA-MB-231, 72 h, read-out: LD50 (the source's name)

## COC(=O)c1cc(OC)c2c(O)c(O)ccc2c1O
  CC50: 96.5 µM

## COc1cc(C(=O)O)c(O)c2ccc3c(c12)[C@@H]1O[C@@H](OC)[C@H](C)[C@@H]2CC[C@](C)(O3)[C@@H]21
  CC50: 130 µM

## CCO[C@@H]1O[C@H]2c3c(ccc4c(O)c(C(=O)O)cc(OC)c34)O[C@@]3(C)CC[C@@H]([C@H]1C)[C@@H]23
  CC50: 62.3 µM

## COc1c(C=O)c(O)cc2c1C(=O)c1ccccc1C2=O [DAMNACANTHAL]
  CC50: > 352 µM

## COc1c(C)c(O)cc2c1C(=O)c1ccccc1C2=O
  CC50: 54.4 µM

## COc1cc(C(=O)O)c(O)c2ccc3c(c12)C=CC(C)(CCC=C(C)C)O3 (stereo unspecified) [BUSSEIHYDROQUINONE C]
  CC50: 48.4 µM

— ChEMBL document CHEMBL3867442, “Naphthalene Derivatives from the Roots of Pentas parvifolia and Pentas bussei” (2016)
